As usually defined, the CC50 is the concentration giving 50% cytotoxicity. A high value points to lower toxicity to the cells. As usually defined, the EC50 is the concentration needed to bring the measured effect to its halfway point.

The source made the active and inactive calls.

This passage reports Activity, CC50 and EC50 results from ChEMBL document CHEMBL1144007, “Activity of Mannich bases of 7-hydroxycoumarin against Flaviviridae” (Bioorg Med Chem, 2008).

The test system of one series is Coxsackievirus B2. The series is described as follows: Antiviral activity against coxsackie B2 virus. It counts as functional, organism-based.
The nature of series [1]: Cytotoxicity against human MT4 cells after 96 hrs by MTT method. It counts as cell-based. (Formazan colour is commonly taken as a measure of viable cells.)
The test system of series [2] is Human immunodeficiency virus 1. Briefly: Antiviral activity against HIV1. It counts as functional, organism-based.
Series [3] deals with Respiratory syncytial virus. Briefly: Antiviral activity against RSV A2 in VERO76 cells assessed as reduction of plaque number by MTT method. Format: functional, organism-based. To be noted: human respiratory syncytial virus, A2, Vero 76.
Another series concerns Vaccinia virus. The series is described as follows: Antiviral activity against vaccinia virus. It counts as functional, organism-based. To be noted: Orthopoxvirus vaccinia.
The subject of the next series is Poliovirus 1. Briefly: Antiviral activity against Human poliovirus 1 Sabin. It counts as functional.
In series [4] the test system is Bovine viral diarrhea virus 1. The series is described as follows: Antiviral activity against BVDV NADL in MDBK cells assessed as protection from virus-induced cytopathogenicity by MTT method. It counts as functional, organism-based. The conditions noted are these: Bovine viral diarrhea virus isolates and strains. In general terms: Cytopathic effects are the visible damage that an infection or toxin causes in cultured cells.

In series [5] the test system is Vesicular stomatitis virus. Briefly: Antiviral activity against vesicular stomatitis virus. It counts as functional, organism-based.
The test system of a further series is Yellow fever virus. Briefly: Antiviral activity against YFV in BHK cells assessed as protection from virus-induced cytopathogenicity by MTT method. Format: functional, organism-based.
A further series has as its system Reovirus sp. Briefly: Antiviral activity against Reovirus. It counts as functional, organism-based.

As to `O=c1ccc2ccc(O)c(CN3CCCCC3)c2o1`, the outcome (in the series on Coxsackievirus B2; in series [2]; with Vaccinia virus; in the series on Poliovirus 1; in series [5]; in the series on Reovirus sp.) was inactive. In [1], this compound gave a CC50 at 96 h of over 100 µM. Besides, the concentration giving a half-maximal response (EC50) (in [3]; in [4]; in the series on Yellow fever virus) was over 100 µM throughout.
Compound `CCN(CC)c1oc2cc(OC)ccc2c(=O)c1Cc1c(O)ccc2c(C)cc(=O)oc12` displayed a CC50 at 96 h in series [1] of over 100 µM. For the same compound, the outcome (in series [2]; in the series on Vaccinia virus; in the series on Poliovirus 1; in [5]; in the series with Reovirus sp.) was inactive. Also, the EC50 (in series [3]; in series [4]; with Yellow fever virus) was over 100 µM in each case.
Consider `CCC(=O)Oc1ccc2ccc(=O)oc2c1Cc1c(-c2ccccc2)[nH]c2ccccc12`, for which, in series [1], the CC50 at 96 h is over 100 µM. Further, the outcome (in series [2]; with Vaccinia virus; in the series on Poliovirus 1; in series [5]; in the series with Reovirus sp.) was inactive. For the same compound, the figures for the half-maximal effective concentration (EC50) (in series [3]; in [4]; with Yellow fever virus) were over 100 µM, over 100 µM and over 82 µM, respectively.
As to `COc1ccc2c(=O)c(Cc3c(OC(C)=O)ccc4ccc(=O)oc34)c(N(C)C)oc2c1`, the midpoint of cytotoxicity in [1], the CC50 at 96 h, lay at 26 µM. For the same compound, the outcome (in series [2]; in the series on Vaccinia virus; in the series on Poliovirus 1; in series [5]; in the series on Reovirus sp.) was inactive. The EC50 in series [3] was over 25 µM; in series [4], over 51 µM; in the series with Yellow fever virus, over 100 µM.
Turning to `Cc1cc(=O)oc2c(CN3CCOCC3)c(OC(=O)c3ccccc3)ccc12`, the CC50 at 96 h in [1] is over 100 µM. In addition, the outcome (in series [2]; with Vaccinia virus; in the series on Poliovirus 1; in series [5]; in the series with Reovirus sp.) was inactive. For the same compound, the EC50 (in [3]; in series [4]; in the series on Yellow fever virus) was over 100 µM each time.
For `COc1ccc2c(=O)c(Cc3c(OC(C)=O)ccc4c(C)cc(=O)oc34)c(N(C)C)oc2c1`, it took 42 µM to reach half-maximal cytotoxicity in series [1] (CC50 at 96 h). In addition, the result (in [2]; in the series with Vaccinia virus; with Poliovirus 1; in series [5]; in the series on Reovirus sp.) was inactive. In addition, the EC50 in [3] is 25 µM; in [4], over 28 µM; in the series on Yellow fever virus it was over 100 µM.
For the compound `CCC(=O)Oc1ccc2ccc(=O)oc2c1Cc1c[nH]c2ccccc12`, the CC50 at 96 h in series [1] was 65 µM. In addition, the outcome (in [2]; in the series on Vaccinia virus; with Poliovirus 1; in series [5]; with Reovirus sp.) was inactive. Also, the EC50 is over 54 µM in series [3], at least 55 µM in series [4] and over 52 µM in the series with Yellow fever virus.
In the case of `COc1ccc2c(=O)c(Cc3c(O)ccc4c(C)cc(=O)oc34)c(N3CCCC3)oc2c1`, the CC50 at 96 h in [1] is over 100 µM. The result (in series [2]; with Vaccinia virus; in the series with Poliovirus 1; in [5]; with Reovirus sp.) was inactive. Moreover, the concentration for a half-maximal effect (EC50) (in [3]; in series [4]; with Yellow fever virus) was over 100 µM each time.
